Experimental data reported in PubChem BioAssay (NCI).
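The compound was tested at five concentrations on cells cultured in 96-well plates, with a 48-hour exposure period. GI50 marks 50% less growth. At the TGI there is no net growth.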

Assays:
Test in all cases: growth of human tumour cells (NCI), 48 h
[1] = tested on: 786-0 renal
[2] = tested on: A498 renal
[3] = tested on: A549 NSCLC
[4] = tested on: ACHN renal
[5] = tested on: BT-549 breast
[6] = tested on: CAKI-1 renal
[7] = tested on: COLO 205 colon
[8] = tested on: DU-145 prostate
[9] = tested on: EKVX NSCLC
[10] = tested on: HCT-116 colon
[11] = tested on: HCT-15 colon
[12] = tested on: HL-60(TB) leukemia
[13] = tested on: HOP-62 NSCLC
[14] = tested on: HOP-92 NSCLC
[15] = tested on: HS 578T breast
[16] = tested on: IGROV1 ovarian
[17] = tested on: K-562 leukemia
[18] = tested on: KM12 colon
[19] = tested on: LOX IMVI melanoma
[20] = tested on: M14 melanoma
[21] = tested on: MCF7 breast
[22] = tested on: MDA-MB-231 breast
[23] = tested on: MDA-MB-435
[24] = tested on: MOLT-4 leukemia
[25] = tested on: NCI-H23 lung
[26] = tested on: NCI-H460 lung
[27] = tested on: NCI-H522 lung
[28] = tested on: NCI/ADR-RES ovarian
[29] = tested on: OVCAR-3 ovarian
[30] = tested on: OVCAR-8 ovarian
[31] = tested on: PC-3 prostate
[32] = tested on: RPMI-8226 leukemia
[33] = tested on: RXF 393 renal
[34] = tested on: SF-268 CNS
[35] = tested on: SF-295 CNS
[36] = tested on: SK-MEL-2 melanoma
[37] = tested on: SK-MEL-28 melanoma
[38] = tested on: SK-MEL-5 melanoma
[39] = tested on: SK-OV-3 ovarian
[40] = tested on: SN12C renal
[41] = tested on: SNB-19 CNS
[42] = tested on: SR leukemia
[43] = tested on: SW-620 colon
[44] = tested on: TK-10 renal
[45] = tested on: U251 CNS
[46] = tested on: UACC-257 melanoma
[47] = tested on: UACC-62 melanoma
[48] = tested on: UO-31 renal

Cc1nc(-c2cccc(Nc3nc(-c4ccc(Cl)cc4)cs3)c2)cs1 showed a GI50 [1] of 10.9 µM, a TGI [1] of 21.8 µM and a GI50 [2] of 12.3 µM. For the same compound, the TGI [2] was 20.9 µM, the GI50 [3] was 8.9 µM and the TGI [3] was 24.7 µM. The GI50 [4] was 10.1 µM, the TGI [4] was 17.5 µM and the GI50 [5] was 10.7 µM. For the same compound, the TGI [5] was 21.6 µM, the GI50 [6] was 11.8 µM and the TGI [6] was 24.6 µM. The GI50 [7] was 11.9 µM, the TGI [7] was 31.1 µM and the GI50 [8] was 9.73 µM. The TGI [8] was 18.4 µM, the GI50 [9] was 8.6 µM and the TGI [9] was 17.2 µM. It also gave a GI50 [10] of 11.6 µM, a TGI [10] of 27.5 µM and a GI50 [11] of 7.83 µM. For the same compound, the TGI [11] was 18.6 µM, the GI50 [12] was 19.8 µM and the TGI [12] was > 50 µM. For the same compound, the GI50 [13] was 12.3 µM, the TGI [13] was 24.5 µM and the GI50 [14] was 17.1 µM. For the same compound, the TGI [14] was > 50 µM, the GI50 [15] was 14.1 µM and the TGI [15] was 34.9 µM. It also gave a GI50 [16] of 15.9 µM, a TGI [16] of 32.7 µM and a GI50 [17] of 8.06 µM. For the same compound, the TGI [17] was 21.4 µM, the GI50 [18] was 8.4 µM and the TGI [18] was 20 µM. For the same compound, the GI50 [19] was 7.3 µM, the TGI [19] was 13.9 µM and the GI50 [20] was 9.72 µM. It also gave a TGI [20] of 19.6 µM, a GI50 [21] of 14.7 µM and a TGI [21] of 43.7 µM. For the same compound, the GI50 [22] was 11.1 µM, the TGI [22] was 23.3 µM and the GI50 [23] was 10.4 µM. For the same compound, the TGI [23] was 27.4 µM, the GI50 [24] was 30.9 µM and the TGI [24] was > 50 µM. It also gave a GI50 [25] of 1.27 µM, a TGI [25] of 10.9 µM and a GI50 [26] of 12.4 µM. For the same compound, the TGI [26] was 31.6 µM, the GI50 [27] was 8.8 µM and the TGI [27] was 19 µM. The GI50 [28] was 5.14 µM, the TGI [28] was 12.2 µM and the GI50 [29] was 10.5 µM. The TGI [29] was 23.1 µM, the GI50 [30] was 10.1 µM and the TGI [30] was 23.2 µM. It also gave a GI50 [31] of 8.96 µM, a TGI [31] of 21.2 µM and a GI50 [32] of 21.3 µM. The TGI [32] was > 50 µM, the GI50 [33] was 9.63 µM and the TGI [33] was 19 µM. For the same compound, the GI50 [34] was 10.4 µM, the TGI [34] was 24.2 µM and the GI50 [35] was 10.6 µM. For the same compound, the TGI [35] was 28.5 µM, the GI50 [36] was 8.82 µM and the TGI [36] was 18.9 µM. For the same compound, the GI50 [37] was 9.6 µM, the TGI [37] was 21.3 µM and the GI50 [38] was 10.5 µM. For the same compound, the TGI [38] was 19.7 µM, the GI50 [39] was 11.9 µM and the TGI [39] was 25.4 µM. For the same compound, the GI50 [40] was 9.3 µM, the TGI [40] was 17.1 µM and the GI50 [41] was 12.8 µM. It also gave a TGI [41] of 28.9 µM, a GI50 [42] of 8.31 µM and a TGI [42] of 27 µM. For the same compound, the GI50 [43] was 11.9 µM, the TGI [43] was 27 µM and the GI50 [44] was 8.31 µM. It also gave a TGI [44] of 17.8 µM, a GI50 [45] of 8.34 µM and a TGI [45] of 16.4 µM. It also gave a GI50 [46] of 8.76 µM, a TGI [46] of 18.1 µM and a GI50 [47] of 6.83 µM. For the same compound, the TGI [47] was 15 µM, the GI50 [48] was 10 µM and the TGI [48] was 21.1 µM.
